Test results from publication PMC8490629, “Metabolites of Procyanidins From Litchi Chinensis Pericarp With Xanthine Oxidase Inhibitory Effect and Antioxidant Activity” (Frontiers in Nutrition, 2021).
Read-outs that look alike come from different tables or passages of the source. Marks after values point to notes of the source that are not given here.

Assays:
[1] = Urinary excretion of procyanidins and metabolites in rats after oral LPPC (HPLC / LC-MS); assay type: in vivo, rat; settings: for Urinary excretion, phenolic acids / Urinary excretion, procyanidin (% to oral dose): rat urine 0-24 h after oral LPPC 300 mg/kg, after glucuronidase/sulfatase deconjugation; for Urinary excretion as share of the oral intake: rat urine, oral LPPC 300 mg/kg bw
Experimental: Male Sprague-Dawley rats weighing 220 ± 20 g were randomly divided into two groups (n = 20) with 10 rats in each group. Prior to administration, animals were deprived of food for 12 h, but had access to deionized water. The LPPC was dissolved in physiological saline and administered orally to rats at a dose of 300 mg/kg body weight. In addition, the physiological saline was administered orally to the rats in another group as control. All the rats were placed in metabolic cages, each rat per cage (Jiayuan Technology Co. Ltd., Beijing, China). The samples of urine excreted from 0 to 24 h postadministration were collected from the bottom of the metabolic cage under chilled conditions using an ice bath and stored at −80°C before analysis, referring to the method described previously ([38]).
The sample of urine was centrifuged at 4,000 r/min for 10 min at 4°C, and the supernatant was collected. The supernatant was acidified to pH = 5.5 with 0.6 mol/l acetic acid and incubated at 37°C for 60 min in the presence of 10 KU β-glucuronidase with the activity of sulfatase. After further acidification to pH = 2 with 6 mol/l HCl, the samples were directly extracted by ethyl acetate × 3. The resulting supernatant was dried under vacuum by rotatory evaporation at 40°C until the ethyl acetate was completely removed and dissolved in 1 ml of 50% methanol. Then, the solution was purified by the solid phase extraction, and the residue was redissolved in methanol and analyzed by LC-MS as described by Li et al. with modifications ([39]).
Selected samples were analyzed on an Agilent 1100 LC-ESI-MS system (Agilent Technologies Co. Ltd., Foster City, California, USA) to identify metabolites in urine. A VP-ODS column (150 × 4.6 mm ID, 5 μm particle size, Shimadzu Co., Kyoto, Japan) was used and 20 μl solution of the sample was injected. The mobile phases consisted of 0.4% (v/v) aqueous acetic acid as A and acetonitrile as B with the following linear gradient: from 5 to 35% B in the first 40 min, from 35 to 50% B in the next 5 min, from 50 to 80% B in the next 5 min, and from 80 to 5% B in the next 5 min, and re-equilibrated with 5% B for 5 min before next injection. The flow rate was 0.2 ml/min and the absorbance of the eluate was monitored at 280 nm. Mass spectra were collected using an electrospray ionization (ESI) ion source in the negative mode under the following conditions: orifice voltage, −30 V; nebulizing pressure, 30 psi; heat capillary temperature, 275°C; and mass range, m/z 100-1,200.

[2] = DPPH radical scavenging activity
Experimental: 1, 1-Diphenyl-2-picrylhydrazyl radical scavenging activity was determined referring to the method described previously ([41]). Litchi pericarp and phenolic acids were dissolved in 1.0 ml of deionized water at various concentrations ranging from 2.0 to 100.0 μg/ml. Then, the solution of the sample was mixed with 1.0 ml of freshly prepared 0.2 mM DPPH ethanolic solution. Control in the experiment was prepared by the same reagent without the sample. All the tubes were incubated at 37°C for 30 min in the dark, and the final solution was recorded at 517 nm. The DPPH radical scavenging activity was calculated using the following equation:
DPPH radical scavenging rate (%) =(Acontrol-Asample)/Acontrol × 100

xanthine oxidase = target: T1, xanthine oxidase (Bos taurus, UniProt P80457); assay: Xanthine oxidase inhibition assay (uric acid production from xanthine, 295 nm); assay type: biochemical; settings: for IC50: read-out: IC50 (μg/ml) xanthine oxidase (converted); for inhibition at 200 µg/mL: read-out: Inhibition (%) at 200 μg/ml
T1 construct: purchased Sigma (St. Louis, MO, USA)
T1 sequence (P80457 2-1332 limits assumed): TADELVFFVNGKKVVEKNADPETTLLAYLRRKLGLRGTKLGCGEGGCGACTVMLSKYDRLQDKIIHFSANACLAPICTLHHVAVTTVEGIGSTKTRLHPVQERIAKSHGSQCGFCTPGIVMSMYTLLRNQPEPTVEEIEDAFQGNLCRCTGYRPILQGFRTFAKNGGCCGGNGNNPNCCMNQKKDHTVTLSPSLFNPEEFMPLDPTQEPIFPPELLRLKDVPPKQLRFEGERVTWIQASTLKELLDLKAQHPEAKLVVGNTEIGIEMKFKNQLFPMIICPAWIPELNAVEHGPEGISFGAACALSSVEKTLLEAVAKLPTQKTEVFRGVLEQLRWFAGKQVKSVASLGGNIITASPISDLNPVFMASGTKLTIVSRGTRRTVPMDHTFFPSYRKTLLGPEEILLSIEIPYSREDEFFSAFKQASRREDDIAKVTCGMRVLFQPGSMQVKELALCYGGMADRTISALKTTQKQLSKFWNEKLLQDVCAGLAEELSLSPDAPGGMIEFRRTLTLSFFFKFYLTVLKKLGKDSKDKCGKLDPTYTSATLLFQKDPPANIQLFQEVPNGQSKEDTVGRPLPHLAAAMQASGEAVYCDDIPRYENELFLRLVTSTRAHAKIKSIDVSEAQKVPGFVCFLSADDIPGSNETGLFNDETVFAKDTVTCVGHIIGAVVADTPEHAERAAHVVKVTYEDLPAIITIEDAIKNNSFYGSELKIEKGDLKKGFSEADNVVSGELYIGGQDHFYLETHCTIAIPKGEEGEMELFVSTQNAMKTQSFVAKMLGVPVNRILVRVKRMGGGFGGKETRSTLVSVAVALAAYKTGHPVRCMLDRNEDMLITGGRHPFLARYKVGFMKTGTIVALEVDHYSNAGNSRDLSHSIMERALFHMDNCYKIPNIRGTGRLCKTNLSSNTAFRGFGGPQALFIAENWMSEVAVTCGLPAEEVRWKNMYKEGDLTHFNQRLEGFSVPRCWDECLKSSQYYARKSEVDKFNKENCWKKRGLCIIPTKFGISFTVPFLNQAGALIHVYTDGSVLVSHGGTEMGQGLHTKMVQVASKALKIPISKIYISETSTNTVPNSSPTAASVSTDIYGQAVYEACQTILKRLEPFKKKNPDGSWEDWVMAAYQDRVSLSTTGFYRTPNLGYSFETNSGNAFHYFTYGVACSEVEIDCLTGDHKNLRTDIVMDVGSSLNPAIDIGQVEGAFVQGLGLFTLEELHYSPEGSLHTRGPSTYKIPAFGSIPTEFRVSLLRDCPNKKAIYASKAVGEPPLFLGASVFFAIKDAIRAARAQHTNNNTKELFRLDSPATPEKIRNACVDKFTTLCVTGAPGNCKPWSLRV

[3] = Hydroxyl radical scavenging activity
Experimental: Hydroxyl radical scavenging activity was assessed according to the method of Dong et al. ([42]) with modifications. The reagents and samples were added strictly obeying following order: 0.25 ml 1.5 mM phenanthroline ethanolic solution, 0.5 ml phosphoric acid buffer (pH = 7.4), 0.25 ml 1.5 mM freshly prepared ferrous sulfate solution, 0.5 ml sample (0–0.5 mg), and 0.25 ml 0.01% H2O2. The injured tubes in the experiment were prepared by the same reagents except samples, while control was carried out by adding sample without H2O2. The mixtures were shaken and incubated at 37°C for 1 h, and then measured at 536 nm. The hydroxyl radical scavenging activity was calculated using the following equation:
hydroxyl radical scavenging rate (%) =Asample-Ainjured/Acontrol-Ainjured ×100

| SMILES | Urinary excretion, phenolic acids [1] [nmol] | IC50 (μg/ml) DPPH· [2] | IC50 (μg/ml) DPPH· ([2]; listed as 3-hydroxyphenylacetic acid) [µg/mL] | IC50 (xanthine oxidase) [µM] | inhibition at 200 µg/mL (xanthine oxidase; xanthine oxidase, 200 μg/ml) [%] | IC50 (μg/ml) ·OH [3] | IC50 (μg/ml) DPPH· ([2]; listed as 3-hydroxyphenylpropionic acid) [µg/mL] | IC50 (μg/ml) DPPH· ([2]; listed as 4-hydroxyphenylpropionic acid) [µg/mL] | Urinary excretion, procyanidin (% to oral dose) [1] | Urinary excretion as share of the oral intake [1] | Inhibition (%) at 200 μg/ml (xanthine oxidase; xanthine oxidase, 200 μg/ml) | Inhibition (%) at 200 μg/ml (xanthine oxidase; xanthine oxidase, 200 μg/ml, listed as epicatechin) | inhibition at 200 µg/mL (xanthine oxidase) [%] | IC50 (μg/ml) DPPH· ([2]; listed as vanillic acid) [µg/mL] |
| --- | --- | --- | --- | --- | --- | --- | --- | --- | --- | --- | --- | --- | --- | --- |
| O=C(O)Cc1cccc(O)c1 [3-Hydroxyphenylacetic acid, 3-hydroxyphenylacetic acid] | 46.98 ± 3.76 | 82.60 ± 1.95^h μg/ml | > 50 | > 1310 | 21.1 ± 1.78 | 803.47 ± 6.38^g μg/ml |  |  |  |  |  |  |  |  |
| O=C(O)CCc1cccc(O)c1 [3-Hydroxyphenylpropionic acid, 3-hydroxyphenylpropionic acid] | 12.87 ± 3.06 | 77.83 ± 0.93^g μg/ml |  | > 1200 | 27 ± 1.44 | 841.57 ± 4.45^h μg/ml | > 50 |  |  |  |  |  |  |  |
| O=C(O)CCc1ccc(O)cc1 [4-Hydroxyphenylpropionic acid, 4-hydroxyphenylpropionic acid] | 60.54 ± 3.18 | 74.63 ± 1.40^f μg/ml |  | > 1200 | 29.4 ± 0.75 | 813.87 ± 5.48^g μg/ml |  | > 50 |  |  |  |  |  |  |
| Oc1cc(O)c2c(c1)O[C@H](c1ccc(O)c(O)c1)[C@H](O)C2 [(-)-Epicatechin, (-)-epicatechin] |  | 5.43 ± 0.10^a μg/ml |  | 201 |  | 121.27 ± 1.80^a μg/ml |  |  | 0.21 ± 0.04 % to oral dose | 0.21 ± 0.04 % (mol/mol) | 78.63 ± 1.72^b % | higher than 50% |  |  |
| Oc1cc(O)c2c(c1)OC1(c3ccc(O)c(O)c3)Oc3cc(O)c4c(c3C2C1O)OC(c1ccc(O)c(O)c1)C(O)C4 (stereo not drawn) [A-type dimer] |  | 5.86 ± 0.14^a μg/ml |  | 119 |  | 126.57 ± 2.58^a μg/ml |  |  | 0.54 ± 0.09 % to oral dose | 0.54 ± 0.09 % (mol/mol) |  |  |  |  |
| Oc1cc(O)c2c(c1)OC1(c3ccc(O)c(O)c3)Oc3cc(O)c4c(c3C2C1O)OC(c1ccc(O)c(O)c1)C(O)C4c1c(O)cc(O)c2c1OC(c1ccc(O)c(O)c1)C(O)C2 (stereo not drawn) [A-type trimer] |  | 8.00 ± 0.18^b μg/ml |  | 86.6 | > 50 | 122.73 ± 2.35^a μg/ml |  |  | 0.43 ± 0.02 % to oral dose | 0.43 ± 0.02 % (mol/mol) |  |  |  |  |
| Oc1ncnc2[nH]ncc12 [Allopurinol, reference compound] |  |  |  |  |  |  |  |  |  |  |  |  | 85.6 ± 3.13 |  |
| O=C(O)/C=C/c1ccc(O)c(O)c1 [Caffeic acid, caffeic acid] | 20.67 ± 2.68 | 9.88 ± 0.55^c μg/ml |  | 531 |  | 161.47 ± 3.31^c μg/ml |  |  |  |  |  |  |  |  |
| O=C(O)C1=C[C@@H](O)[C@@H](O)[C@H](O)C1 [Shikimic acid, shikimic acid] | 27.22 ± 7.02 | 8.96 ± 0.18b^c μg/ml |  | 552 | > 50 | 186.53 ± 7.56^d μg/ml |  |  |  |  | 61.13 ± 0.81^f % |  |  |  |
| COc1cc(C(=O)O)ccc1O [Vanillic acid, vanillic acid] | 6.62 ± 2.79 | 86.06 ± 1.33^i μg/ml |  | > 1190 |  | 897.33 ± 9.90^i μg/ml |  |  |  |  |  |  | 25 ± 1.47 | > 50 |
| O=C(O)/C=C/c1cccc(O)c1 [m-Coumaric acid, m-coumaric acid] | 39.01 ± 7.33 | 21.93 ± 1.25^e μg/ml |  | 942 | 52.8 ± 1.57 | 256.43 ± 9.33^f μg/ml |  |  |  |  |  |  |  |  |
| O=C(O)/C=C/c1ccc(O)cc1 [p-Coumaric acid, p-coumaric acid] | 13.89 ± 1.65 | 16.53 ± 0.65^d μg/ml |  | 852 | 57.4 ± 0.62 | 220.13 ± 4.57^e μg/ml |  |  |  |  |  |  |  |  |
